Source: US6596718B1, “7-Morpholin-4yl-benzothiazole amide derivatives” (Hoffmann-La Roche Inc., priority 2001, dated 2003)

Compound | melting point
COc1ccc(N2CCOCC2)c2sc(C(=O)NCCc3ccncc3)nc12 [Example 48, 4-Methoxy-7-morpholin-4-yl-benzothiazole-2-carboxylic acid (2-pyridin-4-yl-ethyl)-amide] | 185 to 188 °C
COc1ccc(N2CCOCC2)c2sc(C(=O)NCCc3cccc(NC(C)=O)c3)nc12 [Example 50, 4-Methoxy-7-morpholin-4-yl-benzothiazole-2-carboxylic acid [2-(3-acetylamino-phenyl)-ethyl]-amide] | 165 to 166 °C
COc1ccc(N2CCOCC2)c2sc(C(=O)NNc3ccccc3)nc12 [Example 51, 4-Methoxy-7-morpholin-4-yl-benzothiazole-2-carboxylic acid N′-phenyl-hydrazide] | 226 to 227 °C
COc1ccc(N2CCOCC2)c2sc(C(=O)NNC(=O)c3ccccn3)nc12 [Example 52, Pyridine-2-carboxylic acid N′-(4-methoxy-7-morpholin-4-yl-benzothiazole-2-carbonyl)-hydrazide] | 225 to 226 °C
COc1ccc(N2CCOCC2)c2sc(C(=O)Nc3ccncc3)nc12 [Example 53, 4-Methoxy-7-morpholin-4-yl-benzothiazole-2-carboxylic acid pyridin-4-ylamide] | 206 to 207 °C
COc1cc(OC)cc(C(=O)NNC(=O)c2nc3c(OC)ccc(N4CCOCC4)c3s2)c1 [Example 56, 3,5-Dimethoxy-benzoic acid N′-(4-methoxy-7-morpholin-4-yl-benzothiazole-2-carbonyl)-hydrazide] | 146 to 148 °C
COc1ccc(N2CCOCC2)c2sc(C(=O)NCCc3ccccc3F)nc12 [Example 58, 4-Methoxy-7-morpholin-4-yl-benzothiazole-2-carboxylic acid [2-(2-fluoro-phenyl)-ethyl]-amide] | 151 to 153 °C
COc1ccc(N2CCOCC2)c2sc(C(=O)NCCc3cccc(C(F)(F)F)c3)nc12 [Example 60] | 106 to 108 °C
COc1ccc(N2CCOCC2)c2sc(C(=O)NCCc3ccc(C)cc3)nc12 [Example 61, 4-Methoxy-7-morpholin-4-yl-benzothiazole-2-carboxylic acid (2-p-tolyl-ethyl)-amide] | 136 to 138 °C
COc1ccc(C(=O)CNC(=O)c2nc3c(OC)ccc(N4CCOCC4)c3s2)cc1 [Example 66, 4-Methoxy-7-morpholin-4-yl-benzothiazole-2-carboxylic acid [2-(4-methoxy-phenyl)-2-oxo-ethyl]-amide] | 176 to 178 °C
COc1ccc(N2CCOCC2)c2sc(C(=O)NC(c3ccccc3)c3ccccn3)nc12 (centres unmarked) [Example 67, 4-Methoxy-7-morpholin-4-yl-benzothiazole-2-carboxylic acid (phenyl-pyridin-2-yl-methyl)-amide] | 219 to 221 °C
COc1ccc(CCNC(=O)c2nc3c(OC)ccc(N4CCOCC4)c3s2)cc1 [Example 68, 4-Methoxy-7-morpholin-4-yl-benzothiazole-2-carboxylic acid [2-(4-methoxy-phenyl)-ethyl]-amide] | 69 to 71 °C
COc1ccc(N2CCOCC2)c2sc(C(=O)NCc3csc4ccccc34)nc12 [Example 69, 4-Methoxy-7-morpholin-4-yl-benzothiazole-2-carboxylic acid (benzo[b]thiophen-3-ylmethyl)-amide] | 187 to 189 °C
COc1ccc(N2CCOCC2)c2sc(C(=O)NCc3ccc(C)o3)nc12 [Example 70, 4-Methoxy-7-morpholin-4-yl-benzothiazole-2-carboxylic acid (5-methyl-furan-2-ylmethyl)-amide] | 173 to 174 °C
COc1ccc(N2CCOCC2)c2sc(C(=O)NCCc3ccccc3C)nc12 [Example 74, 4-Methoxy-7-morpholin-4-yl-benzothiazole-2-carboxylic acid (2-o-tolyl-ethyl)-amide] | 129 to 131 °C
COc1ccc(N2CCOCC2)c2sc(C(=O)NCC(=O)c3ccc4c(c3)OCCO4)nc12 [Example 75, 4-Methoxy-7-morpholin-4-yl benzothiazole-2-carboxylic acid [2-(2,3-dihydro-benzo[1,4]dioxin-6-yl)-2-oxo-ethyl]-amide] | 206 to 208 °C
COc1ccc(N2CCOCC2)c2sc(C(=O)NCC(=O)c3sc4ccccc4c3C)nc12 [Example 76, 4-Methoxy-7-morpholin-4-yl-benzothiazole-2-carboxylic acid [2-(3-methyl-benzo[b]thiophen-2-yl)-2-oxo-ethyl]-amide] | 185 to 187 °C
COc1ccc(N2CCOCC2)c2sc(C(=O)NCC(=O)c3cccs3)nc12 [Example 78, 4-Methoxy-7-morpholin-4-yl-benzothiazole-2-carboxylic acid (2-oxo-2-thiophen-2-yl-ethyl)-amide] | 171 to 173 °C
COc1ccc(N2CCOCC2)c2sc(C(=O)NCC(=O)c3ccsc3)nc12 [Example 79, 4-Methoxy-7-morpholin-4-yl-benzothiazole-2-carboxylic acid (2-oxo-2-thiophen-3-yl-ethyl)-amide] | 229 to 232 °C
COc1ccc(N2CCOCC2)c2sc(C(=O)NC(C)c3csc(C)n3)nc12 (centres unmarked) [Example 80, 4-Methoxy-7-morpholin-4-yl-benzothiazole-2-carboxylic acid [1-(2-methyl-thiazol-4-yl)-ethyl]-amide] | 174 to 175 °C
COc1ccc(N2CCOCC2)c2sc(C(=O)Nc3ccc(C)nc3)nc12 [Example 82, 4-Methoxy-7-morpholin-4-yl-benzothiazole-2-carboxylic acid (6-methyl-pyridin-3-yl)-amide] | 145 to 147 °C
COc1ccc(N2CCOCC2)c2sc(C(=O)NCCSc3nnc(N)s3)nc12 [Example 83, 4-Methoxy-7-morpholin-4-yl-benzothiazole-2-carboxylic acid [2-(5-amino-[1,3,4]thiadiazol-2-ylsulfanyl)-ethyl]-amide] | 237 to 239 °C
COc1ccc(N2CCOCC2)c2sc(C(=O)NC(C)Cc3cc4ccccc4o3)nc12 (centres unmarked) [Example 84, 4-Methoxy-7-morpholin-4-yl-benzothiazole-2-carboxylic acid (2-benzofuran-2-yl-1-methyl-ethyl)-amide] | 144 to 146 °C
